{"source": "patent US20100286255A1", "about": "“METHOD FOR EXTRACTING SECOISOLARICIRESINOL AND DIHYDROQUERCETIN FROM WOOD” (priority 2007, published 2010)", "key": {"MCF-7 cells": {"tested_on": "MCF-7 cells", "test": "Proliferation of human breast cancer cells MCF-7 (estrogenic and antiestrogenic activity)", "assay_type": "cell-based", "conditions": "ethanol test = 100", "procedure": "The comparative study of the proliferation of the human breast cancer cells MCF-7 under the action of estradiol, SECO, and SECO-containing extracts was carried out according to a known method (H. Adlercreutz, Y. Mousavi, “Enterolactone and estradiol inhibit each other's proliferative effect on MCF-7 breast cancer cells in culture,” J. Steroid. Biochem. Mol. Biol. 41: 615-619 (1992)). To estimate the estrogenic activity of the preparations containing SECO, 1 M solutions of the latter in ethanol (the concentration is indicated for SECO present in the solution) were added to the cell culture with achievement of the final 1 μM concentration of SECO. In each experiment on proliferation, 17β-estradiol was used as a positive standard for the estimation of the estrogenic activity and was also added as an ethanolic solution to achieve the final 1 nM concentration. To estimate the antiestrogenic activity, solutions of 17β-estradiol and the tested SECO preparations, among which there were the preparations obtained under the conditions of Examples 6, 7, and 14, were simultaneously added to the cell culture. The cell proliferation was estimated by counting the number of cells with the Coulter counter, and the results obtained are summarized in Table 2. In the test experiment (see entry 1 in Table 2), ethanol without lignan was added. Five measurements were carried out under each type of conditions."}, "[1]": {"tested_on": "Saccharomyces cerevisiae BKM Y-1173", "test": "Survival rate of S. cerevisiae cells under the action of hydrogen peroxide (antioxidant activity)", "assay_type": "cell-based", "conditions": "antioxidant 5 mg/ml (for DHQ + SECO, total concentration of both), 1 h incubation", "procedure": "Antioxidant activity of DHQ, SECO, and their complexes obtained under the conditions of Examples 6 and 7 was studied by a known method (D. J. Jamieson, “Saccharomyces cerevisiae has distinct adaptive responses to both hydrogen peroxide and menadione” J. Bacteriol. 174: 6678-6681 (1992)) on yeast Saccharomyces cerevisiae BKM Y-1173. The yeasts were grown to the mid-logarithmic growth stage on […] medium containing 2% glucose, the yeast extract, and mineral salts. The yeast cells were separated from the medium by centrifugation, two times washed with water, and incubated with hydrogen peroxide and antioxidants in an aqueous suspension (OD600 0.1-0.15) for 1 h with periodic shaking. Then the corresponding dilutions were made, the yeasts were seeded on the agarized glucose-peptone medium and cultivated for […] at 30° C., and the number of grown colonies and the survival rate of S. cerevisiae cells were counted (Table 1)."}}}
{"smiles": "C[C@]12CC[C@@H]3c4ccc(O)cc4CC[C@H]3[C@@H]1CC[C@@H]2O", "note": "[17β-estradiol, reference compound]", "values": [{"measurement": "Proliferation of cells MCF-7, %", "setting": "MCF-7 cells; positive standard alone, final 1 nM concentration", "result": "140 ± 15", "unit": "%"}]}
{"smiles": "O=C1c2c(O)cc(O)cc2O[C@H](c2ccc(O)c(O)c2)[C@H]1O", "note": "[DHQ (Example 13), Dihydroquercetin]", "values": [{"measurement": "Survival rate, % of test", "setting": "[1]; 5 mM H2O2", "result": "35 ± 5 % of test"}, {"measurement": "Survival rate, % of test", "setting": "[1]; 10 mM H2O2", "result": "9 ± 2 % of test"}, {"measurement": "Survival rate, % of test", "setting": "[1]; Test (no H2O2)", "result": "100 % of test"}]}
{"smiles": "COc1cc(C[C@@H](CO)[C@H](CO)Cc2ccc(O)c(OC)c2)ccc1O", "note": "[SECO (Example 14), secoisolariciresinol]", "values": [{"measurement": "Proliferation of cells MCF-7, %", "setting": "MCF-7 cells; antiestrogenic activity, added simultaneously with 17β-estradiol (1 nM), SECO 1 μM", "result": "115 ± 10", "unit": "%"}, {"measurement": "Proliferation of cells MCF-7, %", "setting": "MCF-7 cells; estrogenic activity, preparation alone, final 1 μM concentration of SECO", "result": "115 ± 10", "unit": "%"}, {"measurement": "Survival rate, % of test", "setting": "[1]; 5 mM H2O2", "result": "35 ± 5 % of test"}, {"measurement": "Survival rate, % of test", "setting": "[1]; 10 mM H2O2", "result": "9 ± 1 % of test"}, {"measurement": "Survival rate, % of test", "setting": "[1]; Test (no H2O2)", "result": "100 % of test"}]}
